For test [1], the target named is Protein kinase C alpha type (Homo sapiens, UniProt P17252).
The next test has as its target TGF-beta receptor type-2 (Homo sapiens, UniProt P37173).
For test [2], the target named is T1, AarF domain-containing protein kinase 1 (Homo sapiens, UniProt Q86TW2).
T1 sequence (Q86TW2 whole entry): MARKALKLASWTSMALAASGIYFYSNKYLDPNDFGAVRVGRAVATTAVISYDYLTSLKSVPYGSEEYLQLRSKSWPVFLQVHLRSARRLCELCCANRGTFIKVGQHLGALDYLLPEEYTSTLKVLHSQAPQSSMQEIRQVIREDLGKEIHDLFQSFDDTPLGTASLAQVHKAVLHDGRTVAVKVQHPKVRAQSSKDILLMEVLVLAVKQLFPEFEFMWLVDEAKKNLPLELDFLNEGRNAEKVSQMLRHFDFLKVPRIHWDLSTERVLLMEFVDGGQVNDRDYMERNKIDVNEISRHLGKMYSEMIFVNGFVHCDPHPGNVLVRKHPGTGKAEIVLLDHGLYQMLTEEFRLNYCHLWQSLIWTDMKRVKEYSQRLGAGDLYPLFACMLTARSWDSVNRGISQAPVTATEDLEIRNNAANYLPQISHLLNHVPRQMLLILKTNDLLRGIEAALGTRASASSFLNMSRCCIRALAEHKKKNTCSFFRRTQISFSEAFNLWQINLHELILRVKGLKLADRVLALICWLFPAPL

Test [3] deals with Casein kinase I isoform epsilon (Homo sapiens, UniProt P49674).
Sequence of Casein kinase I isoform epsilon (P49674 whole entry, canonical isoform): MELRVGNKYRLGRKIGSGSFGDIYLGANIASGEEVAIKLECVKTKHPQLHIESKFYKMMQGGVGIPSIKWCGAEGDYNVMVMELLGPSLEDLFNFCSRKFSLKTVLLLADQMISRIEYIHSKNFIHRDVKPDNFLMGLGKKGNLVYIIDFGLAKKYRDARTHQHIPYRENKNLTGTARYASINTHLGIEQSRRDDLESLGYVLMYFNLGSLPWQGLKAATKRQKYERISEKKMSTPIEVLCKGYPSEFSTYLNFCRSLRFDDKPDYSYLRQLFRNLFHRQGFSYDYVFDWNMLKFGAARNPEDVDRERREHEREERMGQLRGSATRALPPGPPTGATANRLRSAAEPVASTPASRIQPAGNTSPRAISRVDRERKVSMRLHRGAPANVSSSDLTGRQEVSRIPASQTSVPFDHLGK
The target of test [4] is T2, Ras-related protein Rab-27A (Homo sapiens, UniProt P51159).
T2 sequence (P51159 whole entry): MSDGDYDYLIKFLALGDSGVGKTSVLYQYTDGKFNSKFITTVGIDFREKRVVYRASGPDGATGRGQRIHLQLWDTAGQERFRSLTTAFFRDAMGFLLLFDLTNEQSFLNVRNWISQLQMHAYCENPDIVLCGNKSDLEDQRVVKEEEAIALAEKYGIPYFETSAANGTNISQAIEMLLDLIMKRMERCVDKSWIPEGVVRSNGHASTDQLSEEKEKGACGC

The target in test [5] is AP2-associated protein kinase 1 (Homo sapiens, UniProt Q2M2I8).
Sequence of AP2-associated protein kinase 1 (Q2M2I8 whole entry): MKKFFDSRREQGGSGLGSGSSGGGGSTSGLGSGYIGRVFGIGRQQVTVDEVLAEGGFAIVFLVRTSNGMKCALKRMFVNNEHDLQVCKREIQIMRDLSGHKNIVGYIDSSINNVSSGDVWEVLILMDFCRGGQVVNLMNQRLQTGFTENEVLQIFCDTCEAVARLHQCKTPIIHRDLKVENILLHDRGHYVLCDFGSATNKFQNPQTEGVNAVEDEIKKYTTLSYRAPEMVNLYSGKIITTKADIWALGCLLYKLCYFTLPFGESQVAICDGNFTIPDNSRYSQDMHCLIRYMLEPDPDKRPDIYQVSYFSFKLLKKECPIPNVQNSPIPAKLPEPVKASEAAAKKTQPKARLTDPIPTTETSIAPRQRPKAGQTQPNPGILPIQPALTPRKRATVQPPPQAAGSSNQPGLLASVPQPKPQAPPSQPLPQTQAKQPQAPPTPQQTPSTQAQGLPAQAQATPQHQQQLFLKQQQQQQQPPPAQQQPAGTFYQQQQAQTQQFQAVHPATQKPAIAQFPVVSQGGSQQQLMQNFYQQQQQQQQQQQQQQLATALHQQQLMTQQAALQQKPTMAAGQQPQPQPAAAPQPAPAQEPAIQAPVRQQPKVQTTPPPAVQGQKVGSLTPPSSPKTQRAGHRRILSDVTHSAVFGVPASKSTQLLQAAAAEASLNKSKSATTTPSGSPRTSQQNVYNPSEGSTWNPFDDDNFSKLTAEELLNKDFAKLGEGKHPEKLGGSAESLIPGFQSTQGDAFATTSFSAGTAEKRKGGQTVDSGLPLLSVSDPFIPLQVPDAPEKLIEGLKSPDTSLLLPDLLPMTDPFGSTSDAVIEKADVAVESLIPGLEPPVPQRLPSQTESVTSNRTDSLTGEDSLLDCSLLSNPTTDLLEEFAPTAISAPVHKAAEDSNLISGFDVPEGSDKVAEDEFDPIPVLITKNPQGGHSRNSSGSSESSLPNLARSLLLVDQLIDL
The target in another test is T3, Pyridoxal kinase (Homo sapiens, UniProt O00764).
T3 sequence (O00764 whole entry): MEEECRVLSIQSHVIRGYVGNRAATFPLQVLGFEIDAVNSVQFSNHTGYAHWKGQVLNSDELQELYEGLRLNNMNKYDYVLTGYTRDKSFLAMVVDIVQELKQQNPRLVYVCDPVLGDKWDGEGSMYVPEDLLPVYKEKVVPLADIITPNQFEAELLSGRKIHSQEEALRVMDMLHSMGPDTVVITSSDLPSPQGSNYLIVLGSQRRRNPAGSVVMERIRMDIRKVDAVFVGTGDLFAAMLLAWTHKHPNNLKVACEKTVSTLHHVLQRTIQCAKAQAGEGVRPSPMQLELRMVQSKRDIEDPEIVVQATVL

The target of test [6] is ATP-dependent RNA helicase DDX3X (Homo sapiens, UniProt O00571).
Sequence of ATP-dependent RNA helicase DDX3X (O00571 whole entry): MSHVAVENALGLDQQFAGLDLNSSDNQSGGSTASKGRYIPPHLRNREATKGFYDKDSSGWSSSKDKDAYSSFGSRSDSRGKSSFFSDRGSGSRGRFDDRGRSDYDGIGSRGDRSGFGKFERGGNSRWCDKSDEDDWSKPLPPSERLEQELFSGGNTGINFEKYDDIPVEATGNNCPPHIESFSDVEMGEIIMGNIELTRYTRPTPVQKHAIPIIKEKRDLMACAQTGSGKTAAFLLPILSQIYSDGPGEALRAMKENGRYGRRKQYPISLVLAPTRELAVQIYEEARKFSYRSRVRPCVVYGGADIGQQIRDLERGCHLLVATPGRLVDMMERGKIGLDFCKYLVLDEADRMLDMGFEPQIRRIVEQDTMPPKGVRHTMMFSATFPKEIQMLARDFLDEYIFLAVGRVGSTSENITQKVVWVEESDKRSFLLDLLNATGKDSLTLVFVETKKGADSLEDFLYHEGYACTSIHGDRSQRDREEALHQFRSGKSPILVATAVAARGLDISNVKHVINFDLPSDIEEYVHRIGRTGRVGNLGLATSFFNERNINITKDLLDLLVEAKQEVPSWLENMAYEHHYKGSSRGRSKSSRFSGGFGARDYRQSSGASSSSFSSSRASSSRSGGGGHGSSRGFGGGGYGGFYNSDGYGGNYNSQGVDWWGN
Test [7] has as its target Cyclin-dependent kinase 2 (Homo sapiens, UniProt P24941).
For test [8], the target named is S-adenosylmethionine synthase isoform type-2 (Homo sapiens, UniProt P31153).
Sequence of S-adenosylmethionine synthase isoform type-2 (P31153 whole entry, canonical isoform): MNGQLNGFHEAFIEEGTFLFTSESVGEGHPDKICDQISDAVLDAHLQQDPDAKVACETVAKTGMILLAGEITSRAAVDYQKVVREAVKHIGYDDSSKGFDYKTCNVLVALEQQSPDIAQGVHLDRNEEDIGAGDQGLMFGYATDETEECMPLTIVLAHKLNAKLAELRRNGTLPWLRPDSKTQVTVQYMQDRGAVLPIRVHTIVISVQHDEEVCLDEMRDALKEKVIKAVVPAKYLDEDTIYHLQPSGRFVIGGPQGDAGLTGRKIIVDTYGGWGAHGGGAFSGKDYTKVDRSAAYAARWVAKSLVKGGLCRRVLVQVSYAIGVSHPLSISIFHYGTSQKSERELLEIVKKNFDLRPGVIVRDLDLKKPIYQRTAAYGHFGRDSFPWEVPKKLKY
Test [9] concerns the target Rho-associated protein kinase 2 (Homo sapiens, UniProt O75116).
Test [10] concerns the target T4, Glycogen phosphorylase, liver form (Homo sapiens, UniProt P06737).
T4 sequence (P06737 whole entry): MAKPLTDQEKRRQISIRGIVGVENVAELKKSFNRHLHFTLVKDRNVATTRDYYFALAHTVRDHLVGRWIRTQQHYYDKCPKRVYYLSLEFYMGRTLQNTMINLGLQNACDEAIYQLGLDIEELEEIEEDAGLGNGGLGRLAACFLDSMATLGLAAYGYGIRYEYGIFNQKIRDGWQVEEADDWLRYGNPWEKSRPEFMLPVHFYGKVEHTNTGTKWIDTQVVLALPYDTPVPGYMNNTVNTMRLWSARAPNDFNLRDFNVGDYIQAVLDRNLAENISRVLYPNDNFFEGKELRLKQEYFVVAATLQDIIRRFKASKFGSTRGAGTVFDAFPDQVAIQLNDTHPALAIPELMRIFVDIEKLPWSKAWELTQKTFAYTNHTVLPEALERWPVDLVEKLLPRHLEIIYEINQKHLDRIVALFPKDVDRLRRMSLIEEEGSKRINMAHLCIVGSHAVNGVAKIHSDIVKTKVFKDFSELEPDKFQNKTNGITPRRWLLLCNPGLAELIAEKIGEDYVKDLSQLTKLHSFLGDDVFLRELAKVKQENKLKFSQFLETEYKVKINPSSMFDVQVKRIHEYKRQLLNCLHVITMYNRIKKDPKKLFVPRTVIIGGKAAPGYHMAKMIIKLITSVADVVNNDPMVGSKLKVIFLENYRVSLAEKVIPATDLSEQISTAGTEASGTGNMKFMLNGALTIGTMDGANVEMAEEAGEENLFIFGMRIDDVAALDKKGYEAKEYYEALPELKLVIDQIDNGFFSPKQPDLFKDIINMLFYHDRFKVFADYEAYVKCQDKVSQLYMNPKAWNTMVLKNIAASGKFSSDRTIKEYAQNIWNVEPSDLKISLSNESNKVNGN
The test is classed as subcellular, K-562, COLO 205, SK-N-BE(2) and MV-4-11, Cell lysate. The settings on record: read-out: Kd apparent.

Calls of active or inactive are those of the source. Bounds are passed on as bounds.

The results in this text go back to ChEMBL document CHEMBL3991601, “The target landscape of clinical kinase drugs” (Science, 2017).
Note: in the data inactive means no Kd found up to 30 µM.

Sequence of TGF-beta receptor type-2 (P37173 whole entry, the tested form may be a part): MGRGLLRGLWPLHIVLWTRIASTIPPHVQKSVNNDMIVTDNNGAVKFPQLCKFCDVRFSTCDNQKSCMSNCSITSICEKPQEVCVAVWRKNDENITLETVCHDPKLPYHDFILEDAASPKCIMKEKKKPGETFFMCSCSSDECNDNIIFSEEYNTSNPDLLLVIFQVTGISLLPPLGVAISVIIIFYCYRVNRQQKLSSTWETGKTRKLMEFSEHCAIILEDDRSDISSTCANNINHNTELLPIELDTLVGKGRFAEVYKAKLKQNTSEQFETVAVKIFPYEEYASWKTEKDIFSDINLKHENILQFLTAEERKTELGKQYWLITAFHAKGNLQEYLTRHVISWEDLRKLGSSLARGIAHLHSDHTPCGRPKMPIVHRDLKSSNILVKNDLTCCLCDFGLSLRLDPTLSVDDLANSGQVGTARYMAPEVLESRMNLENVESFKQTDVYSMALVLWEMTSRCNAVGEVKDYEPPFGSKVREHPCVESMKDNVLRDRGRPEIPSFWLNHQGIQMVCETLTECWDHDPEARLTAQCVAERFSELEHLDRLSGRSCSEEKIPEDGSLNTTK
Sequence of Rho-associated protein kinase 2 (O75116 whole entry): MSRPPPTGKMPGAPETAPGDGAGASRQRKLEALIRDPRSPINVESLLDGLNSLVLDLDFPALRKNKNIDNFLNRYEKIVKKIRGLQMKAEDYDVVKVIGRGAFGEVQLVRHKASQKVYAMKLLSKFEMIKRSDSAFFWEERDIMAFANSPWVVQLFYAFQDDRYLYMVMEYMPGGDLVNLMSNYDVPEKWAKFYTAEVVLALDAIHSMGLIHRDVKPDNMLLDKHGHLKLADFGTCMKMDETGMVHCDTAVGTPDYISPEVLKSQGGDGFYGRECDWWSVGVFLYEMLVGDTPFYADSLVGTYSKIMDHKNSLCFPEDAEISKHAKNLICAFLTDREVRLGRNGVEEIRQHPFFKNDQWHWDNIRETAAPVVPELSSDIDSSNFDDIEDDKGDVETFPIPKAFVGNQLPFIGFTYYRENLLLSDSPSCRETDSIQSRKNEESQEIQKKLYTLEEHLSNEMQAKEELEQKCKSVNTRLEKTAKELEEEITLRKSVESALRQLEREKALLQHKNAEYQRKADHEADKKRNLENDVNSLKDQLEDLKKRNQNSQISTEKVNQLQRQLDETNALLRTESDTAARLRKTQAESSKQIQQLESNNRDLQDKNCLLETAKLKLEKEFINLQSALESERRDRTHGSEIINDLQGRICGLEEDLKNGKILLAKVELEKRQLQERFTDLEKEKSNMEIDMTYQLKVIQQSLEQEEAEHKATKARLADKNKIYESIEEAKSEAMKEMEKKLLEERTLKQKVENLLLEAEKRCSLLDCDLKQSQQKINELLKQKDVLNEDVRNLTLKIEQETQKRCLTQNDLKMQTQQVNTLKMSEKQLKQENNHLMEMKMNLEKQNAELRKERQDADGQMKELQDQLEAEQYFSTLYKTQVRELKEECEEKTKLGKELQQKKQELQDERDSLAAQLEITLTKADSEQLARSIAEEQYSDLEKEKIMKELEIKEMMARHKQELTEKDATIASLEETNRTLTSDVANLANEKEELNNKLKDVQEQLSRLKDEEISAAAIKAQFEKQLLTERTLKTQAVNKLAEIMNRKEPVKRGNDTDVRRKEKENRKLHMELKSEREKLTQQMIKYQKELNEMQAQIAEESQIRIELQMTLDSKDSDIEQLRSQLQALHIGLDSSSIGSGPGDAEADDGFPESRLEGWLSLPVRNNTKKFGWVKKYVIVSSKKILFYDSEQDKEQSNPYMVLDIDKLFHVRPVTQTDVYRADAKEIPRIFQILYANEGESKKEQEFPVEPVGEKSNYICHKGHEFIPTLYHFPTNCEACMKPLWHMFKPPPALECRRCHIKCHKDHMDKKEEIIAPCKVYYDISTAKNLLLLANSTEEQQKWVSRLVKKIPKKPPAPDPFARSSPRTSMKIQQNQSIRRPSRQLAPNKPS

In the case of `Cn1c(=O)n(-c2ccc(C(C)(C)C#N)cc2)c2c3cc(-c4cnc5ccccc5c4)ccc3ncc21` [DACTOLISIB], the Kd (in test [1]; on TGF-beta receptor type-2; in test [2]; in test [3]; in test [4]; in test [5]) was > 30 µM (inactive) each time. Also, the Kd (on Pyridoxal kinase; in [6]; in test [7]; in [8]; in [9]; in [10]) was > 30 µM (inactive) throughout.

Regarding `C[C@@]1(C(=O)Nc2ccc(F)nc2)CCCN1c1nc(Nc2cc(C3CC3)n[nH]2)c2cccn2n1` [BMS-754807], the Kd (in test [1]; in [2]; in test [4]; on Pyridoxal kinase; in [6]; in test [8]) was > 30 µM (inactive) throughout. Further, the Kd in [10] was > 30 µM (inactive).

Regarding `CN(c1ncccc1CNc1nc(Nc2ccc3c(c2)CC(=O)N3)ncc1C(F)(F)F)S(C)(=O)=O` [PF-00562271], the Kd (in test [1]; on TGF-beta receptor type-2; in test [2]; in [3]; in test [4]; in test [5]) was > 30 µM (inactive) each time. Moreover, the Kd is > 30 µM (inactive) at Pyridoxal kinase; > 30 µM (inactive) in test [6]; 1.07 µM (active) in test [7]; > 30 µM (inactive) in [8]; > 30 µM (inactive) in test [10].

`COc1cc2c(Oc3ccc4[nH]c(C)cc4c3F)ncnc2cc1OCCCN1CCCC1` [CEDIRANIB]: the Kd (in test [1]; in [2]; in [4]; on Pyridoxal kinase; in test [6]; in test [8]) was > 30 µM (inactive) each time. Also, in test [10], the Kd was > 30 µM (inactive).

Turning to `Cn1cnc2c(F)c(Nc3ccc(Br)cc3Cl)c(C(=O)NOCCO)cc21` [SELUMETINIB], the Kd (in test [1]; in [2]; in test [4]; on Pyridoxal kinase; in test [6]; in test [8]) was > 30 µM (inactive) throughout. Further, the Kd in [10] is > 30 µM (inactive).

For the compound `COc1cc2c(N3CCN(C(=O)Nc4ccc(OC(C)C)cc4)CC3)ncnc2cc1OCCCN1CCCCC1` [TANDUTINIB], the Kd (in test [1]; in test [2]; in test [4]; on Pyridoxal kinase; in test [6]; in test [8]) was > 30 µM (inactive) throughout. Besides, the Kd in test [10] was > 30 µM (inactive).

On to `CCN(CCCOc1ccc2c(Nc3cc(CC(=O)Nc4cccc(F)c4)n[nH]3)ncnc2c1)CCOP(=O)(O)O` [BARASERTIB], for which the Kd (in [1]; at TGF-beta receptor type-2; in test [2]; in test [3]; in [5]; on Pyridoxal kinase) was > 30 µM (inactive) each time. In addition, the Kd in [6], in test [7], in test [8] and in test [10] was > 30 µM (inactive) throughout.

Regarding `CC1(C)CNc2cc(NC(=O)c3cccnc3NCc3ccncc3)ccc21` [MOTESANIB], the Kd (in test [1]; in test [2]; in [4]; on Pyridoxal kinase; in [6]; in test [8]) was > 30 µM (inactive) in each case. The Kd in test [10] was > 30 µM (inactive).

Turning to `C=CCn1c(=O)c2cnc(Nc3ccc(N4CCN(C)CC4)cc3)nc2n1-c1cccc(C(C)(C)O)n1` [ADAVOSERTIB], the Kd in test [1] was > 30 µM (inactive); at TGF-beta receptor type-2, > 30 µM (inactive); in test [2], 1.9 µM (active); in test [3] it was > 30 µM (inactive); in test [4] it was > 30 µM (inactive); in [5], > 30 µM (inactive). Also, the Kd (on Pyridoxal kinase; in test [6]; in [7]; in [8]; in [9]; in test [10]) was > 30 µM (inactive) throughout.

Take `CN(C)C/C=C/C(=O)Nc1cc2c(Nc3ccc(F)c(Cl)c3)ncnc2cc1O[C@H]1CCOC1` [AFATINIB]: the Kd (in test [1]; in test [2]; in test [4]; at Pyridoxal kinase; in test [6]; in [8]) was > 30 µM (inactive) throughout. For the same compound, the Kd in test [10] is > 30 µM (inactive).

Consider `O=S(=O)(c1cccc2cnccc12)N1CCCNCC1` [FASUDIL], for which the Kd (in test [1]; at TGF-beta receptor type-2; in [2]; in [3]; in [4]; in [5]) was > 30 µM (inactive) throughout. For the same compound, the Kd at Pyridoxal kinase was > 30 µM (inactive); in test [6], > 30 µM (inactive); in [8], > 30 µM (inactive); in test [9], 0.943 µM (active); in test [10], > 30 µM (inactive).

As to `C[C@]1(O)C[C@@H](c2nc(-c3ccc4ccc(-c5ccccc5)nc4c3)c3c(N)nccn32)C1` [LINSITINIB], the Kd (at TGF-beta receptor type-2; in test [2]; in [3]; in [4]; in test [5]; at Pyridoxal kinase) was > 30 µM (inactive) in each case. Further, the Kd in test [6], in test [8] and in test [10] was > 30 µM (inactive) throughout.

Turning to `CC(C)CC(=O)Nc1[nH]nc2c1CN(C(=O)C1CCN(C)CC1)C2(C)C` [PHA-793887], the Kd (in [1]; at TGF-beta receptor type-2; in test [2]; in test [3]; in [4]; in test [5]) was > 30 µM (inactive) each time. Further, the Kd (on Pyridoxal kinase; in [6]; in test [8]; in test [9]; in test [10]) was > 30 µM (inactive) throughout.
